In ChEMBL document CHEMBL5634129, “Design, synthesis, and structure-activity relationships of a novel class of quinazoline derivatives as coronavirus inhibitors” (Eur J Med Chem, 2023):

Legend:
[1] = tested on: Human coronavirus OC43; experiment: Antiviral activity against HCoV-OC43 infected in human NCI-H460 cells treated for 72 hrs by CPE inhibition assay; assay type: functional, organism-based; conditions: Betacoronavirus 1, NCI-H460, 72 h
[2] = Selectivity index, ratio of TC50 for human NCI-H460 cells infected with HCoV-OC43 to EC50 for HCoV-OC43 infected in human NCI-H460 cells; assay type: toxicity, cell-based; conditions: read-out: Selectivity Index
[3] = Cytotoxicity in human NCI-H460 cells infected with HCoV-OC43 treated for 72 hrs by CPE inhibition assay; assay type: toxicity, cell-based; conditions: read-out: TC50

Compound | EC50 [1] | selectivity ratio [2] | CC50 at 72 h [3]
FC(F)(F)c1cc(Nc2ncnc3cccnc23)cc(C(F)(F)F)c1 | 32.1 µM | 7.5 | 240 µM
CN(C)c1ccc(Nc2ncnc3ccc(Cl)cc23)cc1Cl | > 2.47 µM | – | 4.28 µM
CCOc1ccc2nc(NC(Cc3ccccc3)C(=O)OC(C)(C)C)nc(Nc3cc(C(F)(F)F)cc(C(F)(F)F)c3)c2c1 (stereo unspecified) | 18.5 µM | 2.1 | 38.5 µM
COc1cc2c(Nc3cc(C(F)(F)F)cc(C(F)(F)F)c3)ncnc2cn1 | 0.28 µM | 24.8 | 6.93 µM
CCOC(=O)c1ccc(Nc2ncnc3ccc(Cl)cc23)cc1 | > 7.41 µM | – | 38.5 µM
CCN(CC)CCCC(C)Nc1ncnc2ccc(Cl)cc12 (stereo unspecified) | > 200 µM | – | > 200 µM
COc1ccc2ncnc(N3CCN(c4cc(C(F)(F)F)cc(C(F)(F)F)c4)C(=O)C3)c2c1 | 6.17 µM | – | 240 µM
CN1CCN(CCNc2ncnc3ccc(Cl)cc23)CC1 | > 66.7 µM | – | > 200 µM
CCOc1ccc2ncnc(Nc3cc(C(F)(F)F)cc(C(F)(F)F)c3)c2c1 | 0.69 µM | 318 | 219 µM
COc1ccc2ncnc(Nc3cc(F)cc(C#N)c3)c2c1 | 23.9 µM | 16.3 | 388 µM
COC(=O)c1cc(Nc2ncnc3ccc(OC)cc23)cc(C(F)(F)F)c1 | 0.48 µM | 55.6 | 26.7 µM
CCOc1ccc2nc(NCc3ccco3)nc(Nc3cc(C(F)(F)F)cc(C(F)(F)F)c3)c2c1 | 1.19 µM | 9 | 10.7 µM
CCOC(=O)c1c(/C=C/c2ccccc2)cc(OC)c(CC=C(C)C)c1O | 139 µM | – | > 200 µM
CCOc1ccc2nc(NC3CC3)nc(Nc3cc(C(F)(F)F)cc(C(F)(F)F)c3)c2c1 | 0.31 µM | 15.5 | 4.81 µM
CCOc1ccc2nc(N3CCC(F)(F)CC3)nc(Nc3cc(C(F)(F)F)cc(C(F)(F)F)c3)c2c1 | 6.17 µM | 2.1 | 12.8 µM
COc1ccc(Nc2ncnc3ccc(Cl)cc23)cc1 | > 7.41 µM | – | 12.8 µM
Fc1ccc2ncnc(Nc3cc(C(F)(F)F)cc(C(F)(F)F)c3)c2c1 | 0.88 µM | 14.6 | 12.8 µM
Nc1ccc2ncnc(Nc3cc(C(F)(F)F)cc(C(F)(F)F)c3)c2c1 | 0.48 µM | 22.3 | 10.7 µM
FC(F)(F)c1cc(Nc2ncnc3ccc(I)cc23)cc(C(F)(F)F)c1 | 0.48 µM | 16.6 | 7.95 µM
CCOc1ccc2nc(NC(C)C)nc(Nc3cc(C(F)(F)F)cc(C(F)(F)F)c3)c2c1 | 1.43 µM | 6.2 | 8.9 µM
COc1cc(/C=C/c2ccccc2)c(C(=O)O)c(O)c1CC=C(C)C | 22.2 µM | – | 38.5 µM
FC(F)(F)c1cc(Nc2ncnc3ccc(C(F)(F)F)cc23)cc(C(F)(F)F)c1 | 0.23 µM | 18.6 | 4.28 µM
COc1ccc2ncnc(Nc3cc(F)cc(OC(F)(F)F)c3)c2c1 | 9.98 µM | 28.9 | 289 µM
CCOC(=O)c1ccc(Nc2ncnc3ccc(Cl)cc23)c(Cl)c1 | > 7.41 µM | – | 32 µM
Fc1cc(Nc2ncnc3ccc(Cl)cc23)cc(C(F)(F)F)c1 | 2.47 µM | 2.08 | 5.14 µM

Compound | EC50 [1] | selectivity ratio [2] | CC50 at 72 h [3]
COc1ccc2ncnc(Sc3cc(C(F)(F)F)cc(C(F)(F)F)c3)c2c1 | > 55.6 µM | 96.2 | 96.2 µM
CCCCNc1nc(Nc2cc(C(F)(F)F)cc(C(F)(F)F)c2)c2cc(OCC)ccc2n1 | 1.43 µM | 7.5 | 10.7 µM
CCOc1ccc2nc(NC(C)CCCN(CC)CC)nc(Nc3cc(C(F)(F)F)cc(C(F)(F)F)c3)c2c1 (stereo unspecified) | > 2.06 µM | – | 3.56 µM
COc1ccc2ncnc(Nc3cc(Cl)cc(C#N)c3)c2c1 | 9.98 µM | 24.1 | 240 µM
Clc1ccc2ncnc(Nc3ccc(Br)cc3)c2c1 | > 2.47 µM | – | 5.14 µM
CCOc1ccc2nc(NCC(=O)OC(C)(C)C)nc(Nc3cc(C(F)(F)F)cc(C(F)(F)F)c3)c2c1 | 3.56 µM | 5.2 | 18.5 µM
O=[N+]([O-])c1ccc(Nc2ncnc3ccc(Cl)cc23)cc1Cl | > 2.47 µM | – | 22.2 µM
NC(=O)c1ncn([C@@H]2O[C@H](CO)[C@@H](O)[C@H]2O)n1 [RIBAVIRIN] | 78.8 µM | 5.2 | 409 µM
CCCOc1ccc2ncnc(Nc3cc(C(F)(F)F)cc(C(F)(F)F)c3)c2c1 | 0.37 µM | 1050 | 388 µM
FC(F)(F)c1cc(Nc2ncnc3cnc(Cl)cc23)cc(C(F)(F)F)c1 | 0.15 µM | 11.4 | 1.71 µM
FC(F)(F)c1cc(Nc2ncnc3ccc(Br)cc23)cc(C(F)(F)F)c1 | 0.35 µM | 7.1 | 2.47 µM
FC(F)(F)c1cc(CNc2ncnc3ccc(Cl)cc23)cc(C(F)(F)F)c1 | 9.98 µM | – | 388 µM
CC/C=C/c1cc(OC)c(CC=C(C)C)c(O)c1C(=O)O | > 22.2 µM | – | 46.2 µM
O=[N+]([O-])c1cccc(Nc2ncnc3ccc(Cl)cc23)c1 | 4.28 µM | 12.1 | 51.7 µM
COc1ccc2ncnc(Nc3cc(Cl)cc(C(F)(F)F)c3)c2c1 | 1.43 µM | 90.4 | 129 µM
COc1ccc2ncnc(Nc3cc(C#N)cc(C(F)(F)F)c3)c2c1 | 0.48 µM | 501 | 240 µM
COc1ccc2ncnc(Nc3ccc(F)c(Cl)c3)c2c1 | 3.56 µM | 3.6 | 12.8 µM
Clc1ccc2ncnc(NCCN3CCOCC3)c2c1 | 155 µM | – | > 200 µM
Clc1ccc(Nc2ncnc3ccc(Cl)cc23)c(Cl)c1 | > 7.41 µM | – | 15.4 µM
N#Cc1ccc(Nc2ncnc3ccc(Cl)cc23)c(Cl)c1 | > 22.2 µM | – | 46.2 µM
CCOc1ccc2nc(NCCN3CCN(C)CC3)nc(Nc3cc(C(F)(F)F)cc(C(F)(F)F)c3)c2c1 | 0.53 µM | 10.9 | 5.77 µM
O=[N+]([O-])c1ccc2ncnc(Nc3cc(C(F)(F)F)cc(C(F)(F)F)c3)c2c1 | 0.29 µM | 12.3 | 3.56 µM
COc1cc(/C=C/c2ccc(F)cc2)c(C(=O)O)c(O)c1CC=C(C)C | 12.8 µM | – | 38.5 µM
FC(F)(F)c1cc(Nc2ncnc3ccccc23)cc(C(F)(F)F)c1 | 1.43 µM | 12.1 | 17.2 µM
CCOc1ccc2nc(NCC(F)(F)F)nc(Nc3cc(C(F)(F)F)cc(C(F)(F)F)c3)c2c1 | 2.06 µM | 15.6 | 32.1 µM

Compound | EC50 [1] | selectivity ratio [2] | CC50 at 72 h [3]
COc1ccc2ncnc(Nc3cc(C(F)(F)F)cc(C(F)(F)F)c3)c2c1 | 1.14 µM | – | 96.2 µM
COc1ccc2ncnc(Nc3ccc(F)c(C(F)(F)F)c3)c2c1 | 1.43 µM | 18.7 | 26.7 µM
COc1ccc2ncnc(Nc3cc([N+](=O)[O-])cc(C(F)(F)F)c3)c2c1 | 0.69 µM | 140 | 96.2 µM
CCOc1ccc2nc(NC3CCCC3)nc(Nc3cc(C(F)(F)F)cc(C(F)(F)F)c3)c2c1 | > 6.17 µM | – | 12.8 µM
COc1ccc2ncnc(NNC(=O)c3cc(C(F)(F)F)cc(C(F)(F)F)c3)c2c1 | 1.71 µM | 289 | 289 µM
FC(F)(F)c1cc(Nc2ncnc3ccc(Cl)cc23)cc(C(F)(F)F)c1 | 0.16 µM | 10.8 | 1.71 µM
COc1ccc2ncnc(Nc3cccc(C(F)(F)F)c3)c2c1 | 4.28 µM | 2.5 | 10.7 µM
CN(C)c1ccc(Nc2ncnc3ccc(Cl)cc23)c(Cl)c1 | > 2.47 µM | – | 4.28 µM
CC(C)Oc1ccc2ncnc(Nc3cc(C(F)(F)F)cc(C(F)(F)F)c3)c2c1 | 43.1 µM | 9 | 388 µM
Cc1ccc2ncnc(Nc3cc(C(F)(F)F)cc(C(F)(F)F)c3)c2c1 | 1.19 µM | 80.9 | 96.2 µM
CCOc1ccc2nc(N3CCN(C)CC3)nc(Nc3cc(C(F)(F)F)cc(C(F)(F)F)c3)c2c1 | 0.48 µM | 22.3 | 10.7 µM
COC(=O)c1cc(F)cc(Nc2ncnc3ccc(OC)cc23)c1 | > 55.6 µM | – | 388 µM
O=[N+]([O-])c1cnc(Nc2ncnc3ccc(Cl)cc23)nc1 | > 66.7 µM | – | 139 µM
Cc1ccc(Nc2ncnc3ccc(Cl)cc23)c(Cl)c1 | > 7.41 µM | – | 28.6 µM
COc1ccc2ncnc(Nc3cccc(C#N)c3)c2c1 | > 55.6 µM | – | 388 µM
O=[N+]([O-])c1ccc(CNc2ncnc3ccc(Cl)cc23)cc1 | 55.6 µM | – | 167 µM
Clc1ccc(Nc2ncnc3ccc(Cl)cc23)cc1 | > 7.41 µM | – | 12.8 µM
Fc1ccc(Nc2ncnc3ccc(Cl)cc23)cc1 | > 7.41 µM | – | 15.4 µM
COc1ccc2ncnc(Nc3cc(C(F)(F)F)ccc3F)c2c1 | > 6.17 µM | – | 15.4 µM
Clc1ccc2ncnc(Nc3ccccc3Cl)c2c1 | > 22.2 µM | – | 96.2 µM
O=[N+]([O-])c1ccc(Nc2ncnc3ccc(Cl)cc23)cc1 | > 7.41 µM | – | 46.2 µM
N#Cc1ccc(Nc2ncnc3ccc(Cl)cc23)cc1 | > 7.41 µM | – | 28.6 µM
O=C(O)c1ccc(Nc2ncnc3ccc(Cl)cc23)c(Cl)c1 | > 22.2 µM | – | 96.2 µM
